Results published in ChEMBL document CHEMBL4811224, “Antibacterial Prenylated p-Hydroxybenzoic Acid Derivatives from Oberonia myosurus and Identification of Putative Prenyltransferases” (2021).
Values after ≈ are worked out from the molar mass of the structure shown.

Tested on: Staphylococcus aureus
Experiment: Antibacterial activity against Staphylococcus aureus subsp. aureus ATCC 29213 assessed as bacterial growth inhibition incubated for 24 hrs by Reed-Muench method
Type: functional

| MIC50 [µg/mL] | SMILES |
| --- | --- |
| 15 (≈ 55.1 µM) | CC(C)=CCc1cc(C(=O)O)cc2c1OC(C)(C)C=C2 |
| 56 (≈ 131 µM) | CC(C)=CCc1cc(C(=O)O[C@@H]2CC(C(=O)O)=C[C@@H](O)[C@H]2O)cc2c1OC(C)(C)C=C2 |
| 23 (≈ 58.9 µM) | CC(C)=CCc1cc(C(=O)O[C@H](C)[C@@](C)(O)C(=O)O)cc(CC=C(C)C)c1O |
| 81 (≈ 281 µM) | C=C(C)C(O)Cc1cc(C(=O)O)cc2c1OC(C)(C)C=C2 (stereo not drawn) |
| 93 (≈ 323 µM) | CC(C)=CCc1cc(C(=O)O)cc2c1OC(C)(C)CC2=O |
| 89 (≈ 307 µM) | C=C(C)C(O)Cc1cc(C(=O)O)cc(CC=C(C)C)c1O (stereo not drawn) |
| 7.6 (≈ 27.7 µM) | CC(C)=CCc1cc(C(=O)O)cc(CC=C(C)C)c1O |
| 0.53 | CC1(C)S[C@@H]2[C@H](NC(=O)Cc3ccccc3)C(=O)N2[C@H]1C(=O)[O-].[Na+] [PENICILLIN G SODIUM] |
